Assay results taken from patent US20120055467A1, “METERED-DOSE INHALER AND METHOD OF USING THE SAME” (CHIESI FARMACEUTICI S.P.A., priority 2010, published 2012).

Experiments:
[1] = Andersen Cascade Impactor (ACI) evaluation of pMDI spray drug delivery characteristics; type: physicochemical
Experimental: Spray characteristics of the system were evaluated by an Andersen cascade impactor fitted with a USP throat (App. 1, USP 33). […] This was repeated twice. Pre- and post-shot weights were recorded. […] The solutions were analysed by using a UPLC/MS (Ultra Performance Liquid Chromatography/Mass Spectrometry) system for the determination of the drug deposition.

[2] = Plume duration measured with in-line PC microphone, dual orifice actuator; type: physicochemical; settings: Ex 8, individual can
Experimental: For Example 8, plume duration was measured using an in-line PC microphone in conjunction with Audacity 1.2.6 software.
Formulation combinations 17a-18a and 17b-18b are fired through the dual orifice actuator, as shown at 121 in FIG. 17B. Plume duration was measured for the simultaneous actuation of two 25 μL valves and two 63 μL valves and compared with plume duration for the individual cans. […] The two formulation combinations were: […]

[3] = Ex 1, Dual MDI, Formulations 1+2, single 0.22 mm actuator orifice, mean, n=3
[4] = Ex 1, Dual MDI, Formulations 1+2, single 0.30 mm actuator orifice, mean, n=3
[5] = Ex 1, Standard MDI, single can, 0.22 mm actuator orifice, mean, n=3
[6] = Ex 1, Standard MDI, single can, 0.30 mm actuator orifice, mean, n=3
[7] = Ex 2/3, Standard MDI, single can, 0.22 mm orifice, mean, n=3
[8] = Ex 2, Dual MDI, Formulations 3+4, single 0.22 mm orifice, mean, n=2
[9] = Ex 4, Dual-MDI, Formulation 6 + Formulation 7 (HFA 134a), single 0.22 mm orifice, mean, n=2
[10] = Ex 4, Standard MDI, high ethanol (26% w/w) BDP 100 μg, 0.22 mm orifice, mean, n=2
[11] = Ex 6, dual can, BDP 25 μL + BUD 100 μL, single 0.22 mm orifice, mean, n=2
[12] = Ex 6, dual can, BDP 50 μL + BUD 50 μL, single 0.22 mm orifice, mean, n=2
[13] = Ex 6, dual can, BDP 100 μL + BUD 25 μL, single 0.22 mm orifice, mean, n=2
[14] = Ex 6, single can, 50 μg dose, metered volume 25 μL, 0.22 mm actuator, mean, n=2
[15] = Ex 6, single can, 50 μg dose, metered volume 50 μL, 0.22 mm actuator, mean, n=2
[16] = Ex 6, single can, 50 μg dose, metered volume 100 μL, 0.22 mm actuator, mean, n=2
[17] = Ex 7, Dual can, Formulations 15+16 simultaneously, dual orifice actuator, mean, n=2
[18] = Ex 7, Single can through dual orifice actuator, mean, n=2
[19] = Ex 9, Dual can, Formulations 17a+18a simultaneously, dual orifice actuator, mean, n=2
[20] = Ex 9, Single can through dual orifice actuator, mean, n=2
[21] = Ex 11, Dual can single orifice, Formulations 9+12, 0.30 mm orifice, mean, n=2
[22] = Ex 11, Single reservoir conventional MDI, 50/50, 0.30 mm orifice, mean, n=2
[23] = Ex 19, dual reservoir-single orifice prototype (FIG. 14B)
[24] = Ex 20, triple reservoir-single orifice prototype (FIG. 16B)

Delivered Dose ([1]; Ex 1, Dual MDI, Formulations 1+2 (each BDP 50 μg/25 μl, 13% ethanol, 1.3% glycerol) mixed, single 0.22 mm actuator orifice, mean, n=3): 99.3 µg
FPD ≦ 5 μm [1, 3]: 44.6 µg
FPF [1, 3]: 45.0%
MMAD [1, 3]: 2.9 μm
Delivered Dose [1, 4]: 95.6 µg
FPD ≦ 5 μm [1, 4]: 27.1 µg
FPF [1, 4]: 28.3%
MMAD [1, 4]: 3.0 μm
Delivered Dose ([1]; Ex 1, Standard MDI, single can BDP 100 μg/50 ul, 13% ethanol, 1.3% glycerol, 0.22 mm actuator orifice, mean, n=3): 89.8 µg
FPD ≦ 5 μm [1, 5]: 41.9 µg
FPF [1, 5]: 46.6%
MMAD [1, 5]: 3.0 μm
Delivered Dose [1, 6]: 89.1 µg
FPD ≦ 5 μm [1, 6]: 26.2 µg
FPF [1, 6]: 29.4%
MMAD [1, 6]: 3.3 μm
Delivered Dose ([1]; Ex 2/3, Standard MDI, single can (BDP 100 μg/50 μl or formoterol fumarate 6 μg/50 μl), 0.22 mm orifice, mean, n=3): 99.3 µg
FPD ≦ 5 μm [1, 7]: 44.6 µg
FPF [1, 7]: 45.0%
MMAD [1, 7]: 2.9 μm
Delivered Dose ([1]; Ex 2, Dual MDI, Formulation 3 (formoterol fumarate 6 μg/25 μl) + Formulation 4 (BDP 100 μg/25 μl, glycerol) mixed, single 0.22 mm orifice, mean, n=2): 97.9 µg
FPD ≦ 5 μm [1, 8]: 52.5 µg
FPF [1, 8]: 53.6%
MMAD [1, 8]: 2.5 μm
Delivered Dose ([1]; Ex 4, Dual-MDI, Formulation 6 (BDP 100 μg/25 μl, 26% ethanol) + Formulation 7 (100% HFA 134a, 25 μl), single 0.22 mm orifice, mean, n=2): 86.4 µg
FPD ≦ 5 μm [1, 9]: 41.1 µg
FPF [1, 9]: 47.5%
MMAD [1, 9]: 2.7 μm
FPD ≦ 5 μm [1, 10]: 26.7 µg
FPF [1, 10]: 26.5%
MMAD [1, 10]: 3.5 μm
Delivered Dose ([1]; Ex 4, Standard MDI, single can BDP 100 μg/25 μl, 26% w/w ethanol, 1.3% glycerol, 0.22 mm orifice, mean, n=2): 100.6 µg
Delivered Dose [1, 11]: 49.4 µg
FPD ≦ 5 μm [1, 11]: 18.5 µg
FPF [1, 11]: 37.3%
MMAD [1, 11]: 2.6 μm
Delivered Dose [1, 12]: 38.2 µg
FPD ≦ 5 μm [1, 12]: 16.8 µg
FPF [1, 12]: 44.1%
MMAD [1, 12]: 1.9 μm
Delivered Dose [1, 13]: 45.5 µg
FPD ≦ 5 μm [1, 13]: 18.6 µg
FPF [1, 13]: 40.8%
MMAD [1, 13]: 1.8 μm
MMAD ([1]; Ex 6, single can configuration, 0.22 mm actuator, across metered volumes 25-100 μL): 1.1-1.2 μm
Delivered Dose ([1]; Ex 6, single can, 50 μg dose, metered volume 25 μL (Formulation 9 / 12), 0.22 mm actuator, mean, n=2): 52.0 µg
FPD ≦ 5 μm [1, 14]: 31.1 µg
FPF [1, 14]: 59.8%
MMAD [1, 14]: 1.2 μm
Delivered Dose ([1]; Ex 6, single can, 50 μg dose, metered volume 50 μL (Formulation 10 / 13), 0.22 mm actuator, mean, n=2): 45.6 µg
FPD ≦ 5 μm [1, 15]: 24.7 µg
FPF [1, 15]: 54.0%
MMAD [1, 15]: 1.2 μm
Delivered Dose ([1]; Ex 6, single can, 50 μg dose, metered volume 100 μL (Formulation 11 / 14), 0.22 mm actuator, mean, n=2): 48.8 µg
FPD ≦ 5 μm [1, 16]: 19.2 µg
FPF [1, 16]: 39.4%
MMAD [1, 16]: 1.1 μm
Delivered Dose ([1]; Ex 7, Dual can, Formulations 15+16 (both with glycerol, 50 μg/25 μl) fired simultaneously through dual orifice actuator (0.22 mm), mean, n=2): 41.5 µg
FPD ≦ 5 μm [1, 17]: 12.7 µg
FPF [1, 17]: 30.6%
MMAD [1, 17]: 2.5 μm
FPD ≦ 5 μm [1, 18]: 17.0 µg
FPF [1, 18]: 47.2%
MMAD [1, 18]: 2.3 μm
Delivered Dose ([1]; Ex 7, Single can, fired individually through dual orifice actuator (0.22 mm), Formulation 15 inverted, Formulation 16 upright, mean, n=2): 36.0 µg
Delivered Dose ([1]; Ex 9, Dual can, Formulation 17a (budesonide, glycerol) + 18a (BDP, no glycerol) simultaneously through dual orifice actuator, mean, n=2): 40.8 µg
FPD ≦ 5 μm [1, 19]: 12.7 µg
FPF [1, 19]: 31.1%
MMAD [1, 19]: 1.5 μm
FPD ≦ 5 μm [1, 20]: 16.2 µg
FPF [1, 20]: 55.8%
MMAD [1, 20]: 0.9 μm
Delivered Dose ([1]; Ex 9, Single can, fired individually through dual orifice actuator, Formulation 17a inverted, 18a upright (50 μg/25 μL), mean, n=2): 29.1 µg
Metered Dose ([1]; Ex 11, Dual can single orifice, Formulation 9 (BDP 50/25) + Formulation 12 (budesonide 50/25, glycerol), 0.30 mm orifice, mean, n=2): 59.5 µg
Delivered Dose [1, 21]: 55.2 µg
FPD [1, 21]: 16.3 µg
FPF [1, 21]: 29.5%
MMAD [1, 21]: 2.8 μm
Metered Dose ([1]; Ex 11, Single reservoir conventional MDI, 50 μg/50 μl (Formulation 10 / 13), 0.30 mm orifice, mean, n=2): 52.7 µg
Delivered Dose [1, 22]: 47.1 µg
FPD [1, 22]: 16.6 µg
FPF [1, 22]: 35.2%
MMAD [1, 22]: 1.3 μm
MMAD ([1]; Ex 13, BDP formulation 25 μl delivered simultaneously with 100 μl budesonide formulation (glycerol), single 0.30 mm orifice): 3.1 μm
MMAD ([1]; Ex 13, conventional single reservoir MDI, 0.30 mm orifice): 1.2 μm
MMAD ([1]; Ex 14a/15, comparative, conventional single reservoir MDI, 0.22 mm orifice, 50 μl valves): 1.3 μm
MMAD ([1]; Ex 14a/15, dual reservoir-dual orifice, impingement angle 60°, orifice diameter 0.25 mm, separation distance 6.0 mm): 2.3 μm
actuator deposition ([1]; Ex 14a, 15° impingement, 6.0 mm separation, stated comparable to the standard actuator): 6.1 µg
MMAD ([1]; Ex 14a, dual reservoir-dual orifice, Formulations 9+12, impingement angle 60°, orifice diameter 0.25 mm, separation distance 17.5 mm): 2.0 μm
MMAD ([1]; Ex 14a, dual reservoir-dual orifice, impingement angle 15°, orifice diameter 0.25 mm, separation distance 6.0 mm): 1.8 μm
MMAD ([1]; Ex 14a, dual reservoir-dual orifice, impingement angle 60°, orifice diameter 0.25 mm, separation distance 9.0 mm): 2.1 μm
MMAD ([1]; Ex 14a, dual reservoir-dual orifice, impingement angle 60°, orifice diameter 0.30 mm, separation distance 2.0 mm): 1.9 μm
MMAD ([1]; Ex 15, dual reservoir, Formulations 9+12 through a single 0.30 mm diameter orifice): 2.8 μm
Delivered Dose [1, 23]: 67.6 µg
FPD [1, 23]: 30.2 µg
FPF [1, 23]: 44.7%
MMAD [1, 23]: 1.3 μm
Metered Dose ([1]; Ex 19, dual reservoir-single orifice prototype (FIG. 14B), BDP/Formoterol 100/6 μg/25 μl + glycopyrronium bromide 12.5 μg/25 μl): 92.8 µg
Delivered Dose [1, 24]: 60.8 µg
FPD [1, 24]: 21.2 µg
FPF [1, 24]: 34.9%
MMAD [1, 24]: 1.4 μm
Metered Dose ([1]; Ex 20, triple reservoir-single orifice prototype (FIG. 16B), BDP/Formoterol + glycopyrronium bromide + budesonide 50 μg/25 μl): 85.9 µg
Plume duration ([2]; valve size 25 μL (Formulation 18a BDP upright, 17a budesonide inverted)): 0.317 s
Plume duration ([2]; valve size 63 μL (Formulation 18b BDP upright, 17b budesonide inverted)): 0.545 s
Compound: CCC(=O)OCC(=O)[C@@]1(OC(=O)CC)[C@@H](C)C[C@H]2[C@@H]3CCC4=CC(=O)C=C[C@]4(C)[C@@]3(Cl)[C@@H](O)C[C@@]21C [BDP, Beclometasone dipropionate]
